Assay results taken from ChEMBL document CHEMBL3885861, “Open TG-GATES”.

Species: Rattus norvegicus
Test: Open TG-GATES - Regimen: Daily Repeat
Type: toxicity, organism-based, Sprague-Dawley
Design: regimen Daily Repeat, gender Male, age 6 weeks
Details: in vivo, po, route gavage; for APTT / Bas / Eos / Hb / Ht / Lym / MCH / MCHC / MCV / Mono / PT / Plat / RBC / Ret / WBC / Neu: tissue Blood; for KIDNEY_L / KIDNEY_R / KIDNEY_TOTAL: tissue Kidney; for LIVER: tissue Liver; for ALT / AST / BUN / CRE / Ca / DBIL / GLC / IP / K / LDH / Na / PL / RALB / TBIL / TC / TP / gamma-GTP / TG / ALP: tissue Plasma
[1] = 0 mg/kg, 72 h, dose level Control, time 3 day
[2] = 0 mg/kg, […], dose level Control, time 7 day
[3] = 0 mg/kg, […], dose level Control, time 14 day
[4] = 0 mg/kg, […], dose level Control, time 28 day
[5] = 100 mg/kg, 72 h, dose level Low, time 3 day
[6] = 100 mg/kg, […], dose level Low, time 7 day
[7] = 100 mg/kg, […], dose level Low, time 14 day
[8] = 100 mg/kg, […], dose level Low, time 28 day
[9] = 300 mg/kg, 72 h, dose level Middle, time 3 day

SMILES: C[C@H](CS)C(=O)N1CCC[C@H]1C(=O)O [CAPTOPRIL]
- TERMINAL_BW [1]: 245.5 g
- APTT [1]: 16.1 s
- Bas [1]: 0%
- Eos [1]: 1.2%
- Hb [1]: 13.4 g/dL
- Ht [1]: 41%
- Lym [1]: 82.8%
- MCH [1]: 21.5 pg
- MCHC [1]: 32.7%
- MCV [1]: 65.6 fL
- Mono [1]: 5.8%
- PT [1]: 11.3 s
- Plat [1]: 117.3 x10_4/uL
- RBC [1]: 625 x10_4/ul
- Ret [1]: 7.6%
- WBC [1]: 119.1 x10_2/uL
- KIDNEY_L [1]: 1.1 g
- KIDNEY_R [1]: 1.1 g
- KIDNEY_TOTAL [1]: 2.2 g
- LIVER [1]: 11.9 g
- ALT [1]: 40.4 IU/L
- AST [1]: 64.8 IU/L
- BUN [1]: 17.6 mg/dL
- CRE [1]: 0.5 mg/dL
- Ca [1]: 11.3 mg/dL
- DBIL [1]: 0.016 mg/dL
- GLC [1]: 197.6 mg/dL
- IP [1]: 8.9 mg/dL
- K [1]: 4.8 meq/L
- LDH [1]: 86.2 IU/L
- Na [1]: 139 meq/L
- PL [1]: 142.4 mg/dL
- RALB [1]: 3.8 g/dL
- TBIL [1]: 0.4 mg/dL
- TC [1]: 70.6 mg/dL
- TP [1]: 5.7 g/dL
- gamma-GTP [1]: 1.2 IU/L
- TERMINAL_BW [2]: 274 g
- TERMINAL_BW [3]: 333.4 g
- TERMINAL_BW [4]: 402.1 g
- APTT [2]: 16.6 s
- Bas [2]: 0%
- Eos [2]: 0.8%
- Hb [2]: 13.8 g/dL
- Ht [2]: 41.7%
- Lym [2]: 83%
- MCH [2]: 21.1 pg
- MCHC [2]: 33.1%
- MCV [2]: 63.9 fL
- Mono [2]: 4%
- Neu [2]: 12.4%
- Plat [2]: 113.7 x10_4/uL
- RBC [2]: 653.4 x10_4/ul
- Ret [2]: 6.1%
- WBC [2]: 144.9 x10_2/uL
- APTT [3]: 16.9 s
- Bas [3]: 0%
- Eos [3]: 1%
- Hb [3]: 14.3 g/dL
- Ht [3]: 43.1%
- Lym [3]: 80.8%
- MCH [3]: 20.5 pg
- MCHC [3]: 33.1%
- MCV [3]: 62.1 fL
- Mono [3]: 6%
- Neu [3]: 12.4%
- PT [3]: 11.4 s
- Plat [3]: 112.4 x10_4/uL
- RBC [3]: 694.8 x10_4/ul
- Ret [3]: 4.1%
- WBC [3]: 122.3 x10_2/uL
- APTT [4]: 16.7 s
- Bas [4]: 0%
- Eos [4]: 1%
- Hb [4]: 14.5 g/dL
- Ht [4]: 43.7%
- Lym [4]: 86.8%
- MCH [4]: 19 pg
- MCHC [4]: 33.1%
- MCV [4]: 57.4 fL
- Mono [4]: 4.4%
- Neu [4]: 7.8%
- PT [4]: 11.9 s
- RBC [4]: 761.8 x10_4/ul
- Ret [4]: 2.5%
- WBC [4]: 154.2 x10_2/uL
- KIDNEY_L [2]: 1.1 g
- KIDNEY_R [2]: 1.1 g
- KIDNEY_TOTAL [2]: 2.3 g
- KIDNEY_L [3]: 1.3 g
- KIDNEY_R [3]: 1.3 g
- KIDNEY_TOTAL [3]: 2.6 g
- KIDNEY_L [4]: 1.4 g
- KIDNEY_R [4]: 1.4 g
- KIDNEY_TOTAL [4]: 2.9 g
- LIVER [2]: 13 g
- LIVER [3]: 15.7 g
- LIVER [4]: 17 g
- ALT [2]: 37.8 IU/L
- AST [2]: 62 IU/L
- BUN [2]: 18.8 mg/dL
- CRE [2]: 0.6 mg/dL
- DBIL [2]: 0.002 mg/dL
- GLC [2]: 198 mg/dL
- IP [2]: 8.1 mg/dL
- K [2]: 4.9 meq/L
- LDH [2]: 72.4 IU/L
- Na [2]: 141.4 meq/L
- PL [2]: 132.2 mg/dL
- RALB [2]: 3.8 g/dL
- TBIL [2]: 0.3 mg/dL
- TC [2]: 65.2 mg/dL
- TG [2]: 79.8 mg/dL
- TP [2]: 5.8 g/dL
- gamma-GTP [2]: 1.2 IU/L
- ALP [3]: 916.4 IU/L
- ALT [3]: 32.6 IU/L
- AST [3]: 60.2 IU/L
- BUN [3]: 17.8 mg/dL
- CRE [3]: 0.5 mg/dL
- DBIL [3]: 0 mg/dL
- GLC [3]: 202.6 mg/dL
- IP [3]: 8.1 mg/dL
- K [3]: 4.5 meq/L
- LDH [3]: 76.8 IU/L
- Na [3]: 139.4 meq/L
- PL [3]: 169.6 mg/dL
- RALB [3]: 3.9 g/dL
- TBIL [3]: 0.3 mg/dL
- TC [3]: 85.4 mg/dL
- TG [3]: 152 mg/dL
- TP [3]: 6 g/dL
- gamma-GTP [3]: 1.2 IU/L
- ALP [4]: 633 IU/L
- ALT [4]: 31.4 IU/L
- AST [4]: 58 IU/L
- BUN [4]: 20.4 mg/dL
- CRE [4]: 0.6 mg/dL
- DBIL [4]: 0.026 mg/dL
- GLC [4]: 213.6 mg/dL
- IP [4]: 7.7 mg/dL
- K [4]: 4.3 meq/L
- LDH [4]: 110.2 IU/L
- Na [4]: 139.8 meq/L
- PL [4]: 150 mg/dL
- RALB [4]: 3.9 g/dL
- TBIL [4]: 0.3 mg/dL
- TC [4]: 69.2 mg/dL
- TG [4]: 142.4 mg/dL
- TP [4]: 6.1 g/dL
- gamma-GTP [4]: 0.6 IU/L
- TERMINAL_BW [5]: 236.5 g
- APTT [5]: 16.5 s
- Bas [5]: 0%
- Eos [5]: 1%
- Hb [5]: 13.6 g/dL
- Ht [5]: 41.2%
- Lym [5]: 79.6%
- MCH [5]: 21.6 pg
- MCHC [5]: 33.1%
- MCV [5]: 65.3 fL
- Mono [5]: 8.4%
- Neu [5]: 11.4%
- PT [5]: 11.2 s
- Plat [5]: 120 x10_4/uL
- RBC [5]: 632.2 x10_4/ul
- Ret [5]: 7.1%
- WBC [5]: 121.4 x10_2/uL
- KIDNEY_L [5]: 0.9 g
- KIDNEY_R [5]: 1 g
- KIDNEY_TOTAL [5]: 1.9 g
- LIVER [5]: 11.7 g
- ALP [5]: 857.2 IU/L
- ALT [5]: 40.4 IU/L
- AST [5]: 67 IU/L
- BUN [5]: 21.2 mg/dL
- CRE [5]: 0.5 mg/dL
- Ca [5]: 11.4 mg/dL
- DBIL [5]: 0.01 mg/dL
- GLC [5]: 193.6 mg/dL
- IP [5]: 8.4 mg/dL
- K [5]: 5 meq/L
- LDH [5]: 116.8 IU/L
- Na [5]: 138.4 meq/L
- PL [5]: 150.6 mg/dL
- RALB [5]: 4.2 g/dL
- TBIL [5]: 0.3 mg/dL
- TC [5]: 81 mg/dL
- TP [5]: 6.1 g/dL
- gamma-GTP [5]: 1.4 IU/L
- TERMINAL_BW [6]: 261.5 g
- TERMINAL_BW [7]: 305.1 g
- TERMINAL_BW [8]: 346.2 g
- APTT [6]: 15.6 s
- Bas [6]: 0%
- Eos [6]: 0.6%
- Hb [6]: 13.8 g/dL
- Ht [6]: 41.4%
- Lym [6]: 84%
- MCH [6]: 20.7 pg
- MCHC [6]: 33.2%
- MCV [6]: 62.4 fL
- Mono [6]: 4.8%
- Plat [6]: 134.3 x10_4/uL
- RBC [6]: 664.8 x10_4/ul
- Ret [6]: 4.9%
- WBC [6]: 139.3 x10_2/uL
- APTT [7]: 16.9 s
- Bas [7]: 0%
- Eos [7]: 1.2%
- Hb [7]: 14.2 g/dL
- Ht [7]: 42.9%
- Lym [7]: 77%
- MCH [7]: 19.9 pg
- MCHC [7]: 33.2%
- MCV [7]: 60 fL
- Mono [7]: 7.6%
- Neu [7]: 14.4%
- PT [7]: 11.6 s
- RBC [7]: 717 x10_4/ul
- Ret [7]: 3.5%
- WBC [7]: 93.7 x10_2/uL
- APTT [8]: 15.9 s
- Bas [8]: 0%
- Eos [8]: 1.2%
- Hb [8]: 14.8 g/dL
- Ht [8]: 44.8%
- Lym [8]: 83.4%
- MCH [8]: 18.8 pg
- MCHC [8]: 33.1%
- MCV [8]: 56.6 fL
- Mono [8]: 5.4%
- PT [8]: 11.7 s
- RBC [8]: 790.8 x10_4/ul
- Ret [8]: 2.4%
- WBC [8]: 131.2 x10_2/uL
- KIDNEY_L [6]: 1.1 g
- KIDNEY_R [6]: 1.2 g
- KIDNEY_TOTAL [6]: 2.3 g
- KIDNEY_L [7]: 1.2 g
- KIDNEY_R [7]: 1.3 g
- KIDNEY_TOTAL [7]: 2.5 g
- KIDNEY_L [8]: 1.4 g
- KIDNEY_R [8]: 1.4 g
- KIDNEY_TOTAL [8]: 2.8 g
- LIVER [6]: 12.3 g
- LIVER [7]: 13.8 g
- LIVER [8]: 13.8 g
- ALT [6]: 40.8 IU/L
- AST [6]: 67.6 IU/L
- BUN [6]: 20 mg/dL
- CRE [6]: 0.5 mg/dL
- DBIL [6]: 0.002 mg/dL
- GLC [6]: 203.8 mg/dL
- IP [6]: 8.2 mg/dL
- K [6]: 5.1 meq/L
- LDH [6]: 77 IU/L
- Na [6]: 139.2 meq/L
- PL [6]: 144.2 mg/dL
- RALB [6]: 4 g/dL
- TBIL [6]: 0.3 mg/dL
- TC [6]: 74.6 mg/dL
- TG [6]: 83.6 mg/dL
- TP [6]: 6 g/dL
- gamma-GTP [6]: 1.8 IU/L
- ALP [7]: 862.6 IU/L
- ALT [7]: 32.8 IU/L
- AST [7]: 61.2 IU/L
- BUN [7]: 22.2 mg/dL
- CRE [7]: 0.5 mg/dL
- DBIL [7]: 0 mg/dL
- GLC [7]: 197.6 mg/dL
- IP [7]: 7.8 mg/dL
- K [7]: 4.8 meq/L
- LDH [7]: 85 IU/L
- Na [7]: 138.2 meq/L
- PL [7]: 151.6 mg/dL
- RALB [7]: 4.1 g/dL
- TBIL [7]: 0.3 mg/dL
- TC [7]: 72.6 mg/dL
- TP [7]: 6.1 g/dL
- gamma-GTP [7]: 0.8 IU/L
- ALP [8]: 701.4 IU/L
- ALT [8]: 36.6 IU/L
- AST [8]: 65.8 IU/L
- BUN [8]: 22.6 mg/dL
- CRE [8]: 0.5 mg/dL
- DBIL [8]: 0.02 mg/dL
- GLC [8]: 194 mg/dL
- IP [8]: 7.5 mg/dL
- K [8]: 4.9 meq/L
- LDH [8]: 116.8 IU/L
- Na [8]: 137.2 meq/L
- PL [8]: 148.4 mg/dL
- RALB [8]: 4.1 g/dL
- TBIL [8]: 0.3 mg/dL
- TC [8]: 72.8 mg/dL
- TG [8]: 114.6 mg/dL
- TP [8]: 6.2 g/dL
- gamma-GTP [8]: 0.8 IU/L
- TERMINAL_BW [9]: 239.8 g
- APTT [9]: 16.2 s
- Bas [9]: 0%
